# Experimental data taken from patent publication US20240409536A1, “COMPOUNDS AND METHODS FOR MODULATING SPLICING” (REMIX THERAPEUTICS INC., priority 2021, published 2024).
# pIC50: −log10 of the molar value. Counter-ions that a name gives are not always drawn.
# Key:
# Assay type in all cases: cell-based, human
# HTT mRNA = test: Gene panel canonical junction qPCR assay, HTT CJ mRNA decrease; conditions: Homo sapiens, canonical junction qPCR, read-out: HTT IC50 (decrease in CJ mRNA levels)
# In short: (§1)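 IC50 values describe loss of canonical-junction transcript, fitted by 4-parameter logistic to percent response derived from fixed ΔCt windows. Read-out: RT-qPCR on lysates of compound-treated K562 or A673 cells, probes overlapping the exon junction, ΔΔCt versus housekeeping gene and DMSO control.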
# HiBiT-tagged MYB protein = test: HiBiT protein abundance assay, MYB (K562 HiBiT knock-in cells); conditions: 24 hours
# In short: (§2)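 Luminescent readout of HiBiT-tagged endogenous protein after lysis, following 24 h compound exposure of knock-in K562 lines at 37 °C. Ten 3-fold concentrations from 10 μM final, DMSO ≤0.25%. Four-parameter logistic fit of normalized response gives concentration halving abundance (IC50).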
# SMN2 mRNA = test: Gene panel canonical junction qPCR assay, SMN2 CJ mRNA decrease; conditions: Homo sapiens, canonical junction qPCR, read-out: SMN2 IC50 (decrease in CJ mRNA levels)
# In short: as §1
# HiBiT-tagged HTT protein = test: HiBiT protein abundance assay, HTT (K562 HiBiT knock-in cells); conditions: 24 hours
# In short: as §2
pIC50 (HTT mRNA),pIC50 (HiBiT-tagged MYB protein),pIC50 (SMN2 mRNA),pIC50 (HiBiT-tagged HTT protein),SMILES
6.00 to 7.00,> 7.00,> 7.00,6.00 to 7.00,"CCNC1CCN(c2ccc(C(=O)Nc3cc(F)c4nc(C)cn4c3)c3nccnc23)CC1 [Compound 191, 8-[4-(ethylamino)piperidin-1-yl]-N-{8-fluoro-2-methylimidazo[1,2-a]pyridin-6-yl}quinoxaline-5-carboxamide]"
5.00 to 6.00,> 7.00,> 7.00,6.00 to 7.00,Cc1cn2cc(NC(=O)c3ccc(N4CC5(CNC5)C4)c4ccnnc34)cc(F)c2n1 [Compound 131]
5.00 to 6.00,6.00 to 7.00,> 7.00,5.00 to 6.00,Cc1cn2cc(NC(=O)c3ccc(C4CCNC5(CC5)C4)c4nccnc34)cc(F)c2n1 (stereo not shown) [Compound 375]
6.00 to 7.00,> 7.00,> 7.00,6.00 to 7.00,Cc1cn2cc(NC(=O)c3ccc(N4CCC(N(C)C)CC4)c4ccnnc34)cc(F)c2n1 [Compound 137]
6.00 to 7.00,> 7.00,> 7.00,> 7.00,"Cc1cnc2c(N3CCC(N(C)C)CC3)ccc(C(=O)Nc3cc(F)c4nc(C)cn4c3)c2n1 [Compound 200, 8-[4-(dimethylamino)piperidin-1-yl]-N-{8-fluoro-2-methylimidazo[1,2-a]pyridin-6-yl}-3-methylquinoxaline-5-carboxamide]"
5.00 to 6.00,> 7.00,> 7.00,6.00 to 7.00,"Cc1cnc2c(N3CCNCC3)ccc(C(=O)Nc3cc(F)c4nc(C)cn4c3)c2n1 [Compound 197, N-{8-fluoro-2-methylimidazo[1,2-a]pyridin-6-yl}-3-methyl-8-(piperazin-1-yl)quinoxaline-5-carboxamide; trifluoroacetic acid]"
6.00 to 7.00,> 7.00,> 7.00,6.00 to 7.00,Cc1cn2cc(NC(=O)c3ccc(N4CCN[C@H](C)C4)c4ccnnc34)cc(F)c2n1 [Compound 146]
5.00 to 6.00,> 7.00,> 7.00,5.00 to 6.00,Cc1cn2cc(NC(=O)c3ccc(N4CCC(N(C)C)C4)c4ccnnc34)cc(F)c2n1 (stereo not shown) [Compound 134]
5.00 to 6.00,6.00 to 7.00,> 7.00,5.00 to 6.00,"CNC1CCN(c2ccc(C(=O)Nc3cc(F)c4nc(C)cn4c3)c3nccnc23)C1 (stereo not shown) [Compound 190, N-{8-fluoro-2-methylimidazo[1,2-a]pyridin-6-yl}-8-[3-(methylamino)pyrrolidin-1-yl]quinoxaline-5-carboxamide]"
5.00 to 6.00,> 7.00,> 7.00,6.00 to 7.00,"Cc1ccc2c(N3CCNCC3)ccc(C(=O)Nc3cc(F)c4nc(C)cn4c3)c2n1 [Compound 162, N-{8-fluoro-2-methylimidazo[1,2-a]pyridin-6-yl}-2-methyl-5-(piperazin-1-yl)quinoline-8-carboxam-ide, trifluoroacetic acid]"
< 5.00,< 5.00,5.00 to 6.00,< 5.00,"Cc1cn2cc(NC(=O)c3ccc(N4CCNCC4)c4ccnnc34)cc(C(C)O)c2n1 (stereo not shown) [Compound 182, N-[8-(1-hydroxyethyl)-2-methylimidazo[1,2-a]pyridin-6-yl]-5-(piperazin-1-yl)cinnoline-8-carboxamide trifluoroacetate]"
6.00 to 7.00,6.00 to 7.00,> 7.00,6.00 to 7.00,Cc1cn2cc(NC(=O)c3ccc(C4CCNCC4)c4nccnc34)cc(F)c2n1 [Compound 371]
5.00 to 6.00,> 7.00,> 7.00,5.00 to 6.00,"Cc1cn2cc(NC(=O)c3ccc(N4C[C@@H](C)N[C@@H](C)C4)c4nccnc34)cc(F)c2n1 [Compound 186, 8-(3,5-dimethylpiperazin-1-yl)-N-{8-fluoro-2-methylimidazo[1,2-a]pyridin-6-yl}quinoxaline-5-carboxamide]"
< 5.00,6.00 to 7.00,> 7.00,5.00 to 6.00,"COc1cc(NC(=O)c2ccc(N3CCNCC3)c3ccnnc23)cn2cc(C)nc12 [Compound 176, N-{8-methoxy-2-methylimidazo[1,2-a]pyridin-6-yl}-5-(piperazin-1-yl)cinnoline-8-carboxamide trifluoroacetate]"
< 5.00,> 7.00,> 7.00,5.00 to 6.00,"CNC1CCN(c2ccc(C(=O)Nc3cc(F)c4nc(C)cn4c3)c3nc(OC)cnc23)C1 (stereo not shown) [Compound 202, N-{8-fluoro-2-methylimidazo[1,2-a]pyridin-6-yl}-3-methoxy-8-[3-(methylamino)pyrrolidin-1-yl]quinoxaline-5-carboxamide; bis(trifluoroacetic acid)]"
6.00 to 7.00,> 7.00,> 7.00,5.00 to 6.00,"Cc1ccc2c(N3CCC(N(C)C)CC3)ccc(C(=O)Nc3cc(F)c4nc(C)cn4c3)c2n1 [Compound 215, 5-[4-(dimethylamino)piperidin-1-yl]-N-{8-fluoro-2-methylimidazo[1,2-a]pyridin-6-yl}-2-methylquinoline-8-carboxamide]"
5.00 to 6.00,6.00 to 7.00,> 7.00,5.00 to 6.00,"Cc1cn2cc(NC(=O)c3ccc(N4CCNCC4)c4ccnnc34)cc(C#N)c2n1 [Compound 167, N-{8-cyano-2-methylimidazo[1,2-a]pyridin-6-yl}-5-(piperazin-1-yl)cinnoline-8-carboxamide trifluoroacetic acid salt]"
5.00 to 6.00,> 7.00,> 7.00,6.00 to 7.00,Cc1cn2cc(NC(=O)c3ccc(C4CCN(C)CC4)c4ccnnc34)cc(F)c2n1 [Compound 140]
6.00 to 7.00,> 7.00,> 7.00,5.00 to 6.00,"Cc1ccc2c(N3C[C@@H](C)N[C@@H](C)C3)ccc(C(=O)Nc3cc(F)c4nc(C)cn4c3)c2n1 [Compound 214, 5-[(3R,5S)-3,5-dimethylpiperazin-1-yl]-N-{8-fluoro-2-methylimidazo[1,2-a]pyridin-6-yl}-2-methylquinoline-8-carboxamide]"
< 5.00,5.00 to 6.00,6.00 to 7.00,< 5.00,"CCc1cc(NC(=O)c2ccc(N3CCNCC3)c3ccnnc23)nn2cc(C)nc12 [Compound 168, N-{8-ethyl-2-methylimidazo[1,2-b]pyridazin-6-yl}-5-(piperazin-1-yl)cinnoline-8-carboxamide trifluoroacetic acid salt]"
5.00 to 6.00,> 7.00,> 7.00,5.00 to 6.00,CC[C@H]1CN(c2ccc(C(=O)Nc3cc(F)c4nc(C)cn4c3)c3nnccc23)CCN1 [Compound 152]
< 5.00,5.00 to 6.00,> 7.00,< 5.00,"CC(=O)c1cc(NC(=O)c2ccc(N3CCNCC3)c3ccnnc23)cn2cc(C)nc12 [Compound 163, N-{8-acetyl-2-methylimidazo[1,2-a]pyridin-6-yl}-5-(piperazin-1-yl)cinnoline-8-carboxamide]"
5.00 to 6.00,6.00 to 7.00,> 7.00,5.00 to 6.00,"CCNC1CCN(c2ccc(C(=O)Nc3cc(F)c4nc(C)sc4c3)c3nnccc23)CC1 [Compound 221, 5-[4-(ethylamino)piperidin-1-yl]-N-(4-fluoro-2-methyl-1,3-benzothiazol-6-yl)cinnoline-8-carboxamide]"
6.00 to 7.00,> 7.00,> 7.00,6.00 to 7.00,Cc1cc2c(N3CCNCC3)ccc(C(=O)Nc3cc(F)c4nc(C)cn4c3)c2nn1 [Compound 159]
5.00 to 6.00,> 7.00,> 7.00,5.00 to 6.00,Cc1cn2cc(NC(=O)c3ccc(N4CCN(C)[C@H](C)C4)c4ccnnc34)cc(F)c2n1 [Compound 149]
5.00 to 6.00,> 7.00,> 7.00,6.00 to 7.00,"COc1ccc2c(N3CCNCC3)ccc(C(=O)Nc3cc(F)c4nc(C)cn4c3)c2n1 [Compound 169, N-{8-fluoro-2-methylimidazo[1,2-a]pyridin-6-yl}-2-methoxy-5-(piperazin-1-yl)quinoline-8-carboxamide]"
< 5.00,> 7.00,> 7.00,5.00 to 6.00,"COCCOc1cc2c(N3CCNCC3)ccc(C(=O)Nc3cc(F)c4nc(C)cn4c3)c2nn1 [Compound 199, N-{8-fluoro-2-methylimidazo[1,2-a]pyridin-6-yl}-3-(2-methoxyethoxy)-5-(piperazin-1-yl)cinnoline-8-carboxamide]"
< 5.00,< 5.00,< 5.00,< 5.00,"Cc1cn2cc(NC(=O)c3ccc(N4CCNCC4)c4nnccc34)cc(F)c2n1 [Compound 166, N-(8-fluoro-2-methylimidazo[1,2-a]pyridin-6-yl)-8-(piperazin-1-yl)cinnoline-5-carboxamide 2,2,2-trifluoroacetate]"
6.00 to 7.00,> 7.00,> 7.00,6.00 to 7.00,COc1ncc2c(N3C[C@@H](C)N[C@@H](C)C3)ccc(C(=O)Nc3cn4cc(C)nc4c(OC)n3)c2n1 [Compound 378]

SMILES,pIC50 (HTT mRNA),pIC50 (HiBiT-tagged MYB protein),pIC50 (SMN2 mRNA),pIC50 (HiBiT-tagged HTT protein)
Cc1cn2cc(NC(=O)c3ccc(N4C[C@H]5CC[C@@H](C4)N5)c4ccnnc34)cc(F)c2n1 [Compound 108],5.00 to 6.00,6.00 to 7.00,> 7.00,5.00 to 6.00
Cc1cn2cc(NC(=O)c3ccc(N(C)[C@@H]4C[C@H]5CC[C@@H](C4)N5)c4ccnnc34)cc(F)c2n1 [Compound 156],< 5.00,5.00 to 6.00,6.00 to 7.00,< 5.00
